Experiments:
Type in all cases: functional
Conditions in all cases: dose 200 µg/kg
Mus musculus [1] = assay: Induction of IFN-gamma secretion in male C57BL/6 mouse assessed as […] in serum at 200 ug/kg, iv measured after 16 hrs by ELISA (reference value: BLD)
Mus musculus [2] = assay: Induction of IL-4 secretion in male C57BL/6 mouse assessed as IL-4 level in serum at 200 ug/kg, iv measured after 4 hrs by ELISA (reference value: BLD)
Mus musculus [3] = assay: Induction of cytokine secretion in male C57BL/6 mouse assessed as ratio of IFN-gamma to IL-4 level in serum at 200 ug/kg, iv by ELISA

Structure (SMILES)	Activity (Mus musculus [1]) [pg/mL]	Activity (Mus musculus [2]) [pg/mL]	Ratio (Mus musculus [3])
CCCCCCCCCCCCCC[C@@H](O)[C@@H](O)[C@H](CO[C@H]1O[C@H](CO)[C@H](O)[C@H](O)[C@H]1O)NC(=O)CCCCCCCCCCc1ccc(F)cc1	2470.48	425.65	2.03
CCCCCCCCCCCCCCCCCCCCCCCCCC(=S)N[C@@H](CO[C@H]1O[C@H](CO)[C@H](O)[C@H](O)[C@H]1O)[C@H](O)[C@H](O)CCCCCCCCCCCCCC	3291.25	951.79	1.21
CCCCCCCCCCCCCC[C@@H](O)[C@@H](O)[C@H](CO[C@H]1O[C@H](CO)[C@H](O)[C@H](O)[C@H]1O)NC(=S)CCCCCCCCCCc1ccc(F)cc1	1610.18	276.98	2.03
CCCCCCCCCCCCCC[C@@H](O)[C@@H](O)[C@H](CO[C@H]1O[C@H](CO)[C@H](O)[C@H](O)[C@H]1O)NC(=O)CCCCCCCCCCc1ccc(Sc2ccc(F)cc2)cc1	2100.52	324.56	2.26
CCCCCCCCCCCCCC[C@@H](O)[C@@H](O)[C@H](CO[C@H]1O[C@H](CO)[C@H](O)[C@H](O)[C@H]1O)NC(=S)CCCCCCCCCCc1ccc(Oc2ccc(F)cc2)cc1	571.16	125.69	1.59
CCCCCCCCCCCCCC[C@@H](O)[C@@H](O)[C@H](CO[C@H]1O[C@H](CO)[C@H](O)[C@H](O)[C@H]1O)NC(=O)CCCCCCCCCCc1ccc(Oc2ccc(F)cc2)cc1	655.43	205.34	1.12
CCCCCCCCCCCCCC[C@@H](O)[C@@H](O)[C@H](CO[C@H]1O[C@H](CO)[C@H](O)[C@H](O)[C@H]1O)NC(=S)CCCCCCCCCCc1ccc(Sc2ccc(F)cc2)cc1	1046.54	396.07	0.99
CCCCCCCCCCCCCCCCCCCCCCCCCC(=O)N[C@@H](CO[C@H]1O[C@H](CO)[C@H](O)[C@H](O)[C@H]1O)[C@H](O)[C@H](O)CCCCCCCCCCCCCC [RGI-7000]	3083.43	1077.7	–
